Results published in patent publication US10278958B2, “IPA as a protective agent” (IXCELA, INC., priority 2012, dated 2019).
“Also recorded” adds a separate entry of the source.

Key:
BSA = BSA (Bos taurus, UniProt P02769); format: binding
Source text: (§1) In ancillary studies we measured the parent binding constants for I3PA with whole human plasma, HSA, BSA and ubiquitin using serial additions of I3PA to determine the number of molar equivalents of binding sites and mole equivalents of free I3PA. The binding constants (pk) for whole human plasma, HSA and BSA are one the order of 10^3 or greater than for ubiquitin alone. […] Thus, efforts to increase the yield of covalently bound kynuric acid were prevented by over generation of non-covalently bound material. We then decided to attempt this Fenton reaction with I3PA using angiotensin I as the peptide target.

[1] = Stability of IPA in plasma at room temperature; format: in vitro ADME; conditions: after 7 days at room temperature
Source text: FIG. 26 illustrates the first criterion for selecting compounds for targeted methods is that is a progressive biomarkers—as shown by the trend from C to PMHD to HD in the left hand panel for IPA. A practical criterion is stability. […] Method development then involves integrating simplest preparative and instrument protocols for speed and minimum sample size and interferences. A preparative protocol using a simple 3:1 addition of methanol to plasma centrifuging and injecting supernate was matched to a mobile phase, column and detector settings allowing sensitivity to 2 ng/ml, linearity across the range and analysis with no currently determined interferences. […] The third panel illustrates the application of the method to mouse urine in a dose loading study of IPAM showing two metabolites in dosed animals (green) and the same two metabolites in un dosed mice (blue) and in human urine (red).

[2] = Fenton reaction: disappearance of I3PA; format: physicochemical; conditions: 100 μM H2O2, 10 μM iron sulfate, 100 μM I3PA, 4° C. in the dark, 2 h
Description: The reaction mixture was kept at 4° C. in the dark. Every 30 min, a small aliquot of the reaction mixture was diluted 1:10 and injected onto the offline LC-EC array system.

protein aggregation = conditions: in vitro; cited from earlier work
[3] = Distribution of gut-produced IPA to plasma, brain and CSF; format: in vivo, HD mouse models and human; conditions: for crossing of the blood-brain-barrier: gut-produced IPA, brain and CSF
Source text: (§2) IPA is an indole produced in organisms such as c. Sporogenes that have the enzyme to remove the OH from the 2 position on the propionic acid side chain of indole lactic acid an end product of tryptophan metabolism in mammalian species. It is one of several gut metabolites that affect the plasma metabolome. Other organisms such as brewers yeast also show the ability to produce IPA (Sec below a means of producing purified IPA preparations using brewers yeast or similar organisms). […] We have shown that on free radical attack the intermediate positive ion free radical binds to protein as a kynuric acid moiety. […] We also have identified two metabolites of IPA that allow monitoring of levels in excretion samples such as urine which correlate with plasma and brain levels.

[4] = system: Alzheimer β-amyloid protein; conditions: two examples of oxidative stress; cited from earlier work
[5] = system: plasma proteins both albumin and imunoglobulins; format: in vitro ADME
Source text: as §2

E. coli = conditions: culture studies; cited from earlier work
[6] = system: ischemia-induced neuronal damage; conditions: mice and hamsters; by reducing DNA damage and lipid peroxidation; cited from earlier work
brewers yeast protein = assay: Binding of IPA to brewers yeast protein (10K MW filter) and release in HCl; format: physicochemical; conditions: supernate through a 10K MW filter
Source text: In yet another aspect of the disclosure we provide a method for preparation of purified indole therapies. Indoles as a class are subject to degradation and contamination such as the problem encountered with preparations of tryptophan that were related to development basal eosinophilia. Nominally pure commercial sources of indoles when evaluated using ultra-sensitive LCECA techniques show traces of other compounds from the […] to (pg/mg) levels (part per billion to sub part per trillion). These are potentially harmful. Pharmaceutical grade and supplemental tryptophan has now been brought to levels high purity that can be verified by LCECA. To take advantage of this we have developed a protocol for creating high concentrations of IPA using brewers yeast which also produces IPA with relatively good efficiency operating on a substrate of glucose and tryptophan. Brewers yeast as such is a common supplement and present as an extract in typical research mouse feed. Production of IPA in this matrix provides a highly purified IPA in a verifiably and long accepted matrix. As an example a preparation of 1 g of brewers yeast, 500 mg of glucose and 50 mg of tryptophan allowed to incubate to completion at room temperature (90-120 min) in 35 ml of distilled water yields ca. 3 mg of IPA. […]

whole human plasma = assay: Binding constants for I3PA by serial additions, whole human plasma; conditions: whole human plasma vs ubiquitin
Source text: as §1

[7] = Loading study of IPAM in R6/2 HD mice; format: in vivo, mouse
Description: A cohort of R6/2 HD mice were dosed daily for 3 weeks intra peritoneal with 200 ug of the IPA derivative amide indole propionamide (IPAM) and compared with undosed R6/2 and their wild type littermates. Feces and urine were collected at the time of sacrifice and blood and brain after sacrifice. The data indicates: • 1. That the brain and plasma levels correlate with urinary levels and thus animals can be tracked in a drug trial without sacrifice. • 2. […] The R6/2 levels of IPA in brain and plasma are lower than in wild type mice. In this study although feces levels were lower the decrease was not significant.

ubiquitin = molecular target: T1, ubiquitin (Homo sapiens, UniProt P0CG47); assay: Fenton reaction of I3PA with ubiquitin, high resolution MS
T1 construct: A calculation of a theoretical value for ubiquitin ([M+H]^+ m/z 8560.6287)
Description: A Fenton reaction was performed using the same concentrations of hydrogen peroxide, iron sulfate and I3PA as discussed above. One microliter of a solution of ubiquitin prepared to a concentration of 10 mg/mi was added to the mixture. In addition, a separate tube containing only the Fenton reaction without ubiquitin was prepared and labeled as the negative control. The reaction was kept in the dark at 4° C. for 16 h.
High resolution MS analysis of the reaction mixtures was performed using a 12-T Qh/FT-ICR hybrid mass spectrometer (SolariX, Bruker Daltonics) that was equipped with a nanospray source operated in the positive mode. Samples were diluted 1:10 in 50/50 methanol/water, 0.5% formic acid and analyzed on the SolariX. Detection of ions in the SolariX was obtained at a resolution of approximately 110,000.

angiotensin I = molecular target: T2, angiotensin I (Homo sapiens, UniProt P01019); assay: Fenton reaction of I3PA with angiotensin I, MS/MS
T2 construct: attempt this Fenton reaction with I3PA using angiotensin I as the peptide target; purchased The American Peptide Co
Description: Angiotensin I was obtained from The American Peptide Co in Sunnyvale, Calif., USA. Six tubes were prepared with the following Fenton reaction mixtures: Tubes 1 and 4 contained 100 μM H2O2, 10 μM iron sulfate and 100 μM I3PA; Tubes 2 and 5 contained 100 μM H2O2, 100 μM iron sulfate and 100 μM I3PA. Tubes 3 and 6 contained 100 μM H2O2, 200 μM iron sulfate and 100 μM I3PA. Tubes 4, 5, and 6 also contained 1 μl of angiotensin I prepared to a concentration of 10 mg/ml. A separate tube containing only the Fenton reaction without angiotensin I was prepared and labeled as the negative control. The tubes containing the reaction mixtures were covered with aluminum wrap so that none of the reagents would deteriorate in the ambient light. All reaction mixtures were kept on ice. The tubes were left to react for 30 h.
High resolution MS analysis of the reaction mixtures was performed using a 12-T Qh/FT-ICR hybrid mass spectrometer (SolariX, Bruker Daltonics) that was equipped with a nanospray source operated in the positive mode. Samples were diluted 1:2 in 50/50 methanol/water, 0.5% formic acid (for positive-ion mode) or 50/50 methanol/water, 0.05% triethylamine (TEA) (VWR Scientific, PA, USA) (for negative-ion mode) and were analyzed on the SolariX in positive and negative modes. Detection of ions in the SolariX was obtained at a resolution of approximately 110,000. […]

BSA, sequence (P02769 25-607): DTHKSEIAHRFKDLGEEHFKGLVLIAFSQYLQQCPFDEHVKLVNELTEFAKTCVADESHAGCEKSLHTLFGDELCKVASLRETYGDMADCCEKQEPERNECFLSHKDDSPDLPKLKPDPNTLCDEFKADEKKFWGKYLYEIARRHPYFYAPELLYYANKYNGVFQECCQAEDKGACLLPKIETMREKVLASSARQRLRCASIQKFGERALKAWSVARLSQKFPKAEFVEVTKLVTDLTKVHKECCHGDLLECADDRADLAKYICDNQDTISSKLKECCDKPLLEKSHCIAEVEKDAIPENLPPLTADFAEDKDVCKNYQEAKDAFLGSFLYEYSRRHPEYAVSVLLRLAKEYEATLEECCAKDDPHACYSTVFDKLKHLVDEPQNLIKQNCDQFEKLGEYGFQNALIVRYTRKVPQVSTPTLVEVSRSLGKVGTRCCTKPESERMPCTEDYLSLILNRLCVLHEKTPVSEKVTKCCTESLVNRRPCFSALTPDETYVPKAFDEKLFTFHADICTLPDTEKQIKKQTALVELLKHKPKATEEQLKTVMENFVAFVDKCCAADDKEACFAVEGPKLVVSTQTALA

Compound: O=C(O)CCc1c[nH]c2ccccc12 [IPA, indole-3-propionic acid]
- binding constants (pk) relative to ubiquitin alone (BSA): ~10^3
- degradation in plasma [1]: 5%
- oxidative stability in Fenton reaction [2]: disappearance of I3PA
- effect on protein aggregation (protein aggregation): suppress protein aggregation
- absorption ([3]; animal model and human studies): best adsorbed through the gut
- crossing of the blood-brain-barrier [3]: crosses the BBB and is found in brain and CSF
- crossing of the blood-brain-barrier ([3]; listed as I3PA): did cross the blood-brain-barrier; also recorded: crosses the blood-brain-barrier
- transfer from gut to plasma ([3]; residual fecal levels vs plasma levels): majority of IPA produced is transferred to plasma
- neuroprotection [4]: strong levels of neuroprotection
- binding to plasma proteins [5]: strongly bound to plasma proteins
- free levels [5]: ca. 0.1 ng/ml
- loading capacity of plasma for IPA [5]: approximately 10 ug/ml
- normal plasma levels [5]: ca. 200 ug/ml
- effect on other microbial species (E. coli): suppress other microbial species such as E. coli
- protection of neurons [6]: protects neurons from ischemia-induced neuronal damage
- IPA coordinately bound to brewers yeast protein (brewers yeast protein): 75-80%
- binding constants (pk) relative to ubiquitin alone (whole human plasma): ~10^3

Compound: indole propionamide [IPAM]
- conversion of IPAM to IPA ([7]; intra peritoneal 200 ug daily for 3 weeks, R6/2 mice, blood/plasma vs gut): converted rapidly in the blood to IPA but less rapidly in the gut; also recorded: rapidly converted to IPA in the plasma; also recorded: converted rapidly to I3PA in plasma and less rapidly in the gut
- urinary metabolites ([7]; mouse urine of dosed animals): probable glucuronide type Phase II metabolite compounds

Compound: kynuric acid
- binding of I3PA oxidation product to ubiquitin (ubiquitin): bound both covalently and co-coordinately
- covalent binding site on angiotensin I (angiotensin I): Tyr4
